Literature values in patent US20240207266A1, “METHODS FOR TREATING AND MONITORING PARKINSON'S DISEASE” (Denali Therapeutics Inc., priority 2021, published 2024).

Tested on: di-22:6-BMP
Conditions: monkeys; Fuji 2015, Baptista 2020; cited from earlier work

In the case of `CNc1nc(Nc2cn(C(C)(C)C#N)nc2C)ncc1C(F)(F)F` [GNE-0877], the “urine di-22:6-BMP” value is given as “decreased”.

In the case of `CCNc1nc(Nc2cc(F)c(C(=O)N3CCOCC3)cc2OC)ncc1C(F)(F)F` [GNE-7915], the “urine di-22:6-BMP” value is listed as “decreased”.
